Assay results taken from PubChem BioAssay (NCI).
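A five-concentration, 48-hour dose response in 96-well plates underlies each endpoint, interpolated linearly between surrounding concentrations. Here, GI50 denotes the concentration required for 50% inhibition of growth. TGI denotes the concentration required for complete inhibition of growth.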

What was measured:
Assay in all cases: NCI-60 cell line screen, 48 h
KM12 colon = test system: KM12 colon
SW-620 colon = test system: SW-620 colon
SNB-19 CNS = test system: SNB-19 CNS
NCI-H226 lung = test system: NCI-H226 lung
CCRF-CEM leukemia = test system: CCRF-CEM leukemia
HOP-92 NSCLC = test system: HOP-92 NSCLC
HCT-15 colon = test system: HCT-15 colon
UACC-257 melanoma = test system: UACC-257 melanoma
M14 melanoma = test system: M14 melanoma
HL-60(TB) leukemia = test system: HL-60(TB) leukemia
SK-MEL-5 melanoma = test system: SK-MEL-5 melanoma
786-0 renal = test system: 786-0 renal
RXF 393 renal = test system: RXF 393 renal
OVCAR-8 ovarian = test system: OVCAR-8 ovarian
NCI/ADR-RES ovarian = test system: NCI/ADR-RES ovarian

Row | SMILES | TGI (KM12 colon) | TGI (SW-620 colon) | TGI (SNB-19 CNS) | TGI (NCI-H226 lung) | TGI (CCRF-CEM leukemia) | TGI (HOP-92 NSCLC) | TGI (HCT-15 colon) | TGI (UACC-257 melanoma) | TGI (M14 melanoma) | TGI (HL-60(TB) leukemia) | TGI (SK-MEL-5 melanoma) | TGI (786-0 renal) | TGI (RXF 393 renal) | TGI (OVCAR-8 ovarian) | TGI (NCI/ADR-RES ovarian) | GI50 (NCI-H226 lung) | GI50 (RXF 393 renal)
1 | COc1ccc(/C=N/NC(=O)CSc2nc(-c3ccccc3)c(-c3ccccc3)[nH]2)cc1OC | 34 µM | > 100 µM | > 100 µM | 80.4 µM | > 100 µM | 84.6 µM | 83.9 µM | 57.3 µM | 33.8 µM | 42.3 µM | 31.3 µM | 81 µM | 52.7 µM | 36.3 µM | – | – | –
2 | COc1ccc([C@H]2[C@@H]3CCc4ccccc4C3=NN2C(N)=S)cc1OC | > 100 µM | > 100 µM | > 100 µM | > 100 µM | > 100 µM | > 100 µM | > 100 µM | > 100 µM | > 100 µM | 54.8 µM | – | > 100 µM | > 100 µM | > 100 µM | – | – | –
3 | COc1ccc(-n2nnc3c(C#N)c(C)c(-c4ccccc4)n3c2=O)cc1 | > 100 µM | > 100 µM | > 21.6 µM | > 100 µM | – | > 100 µM | > 100 µM | > 100 µM | > 26.7 µM | – | 17 µM | 8.24 µM | > 21.4 µM | > 70.8 µM | 21.1 µM | – | –
4 | CC(=O)NC(CCCCN(Cc1ccccc1)C(=O)N(C)N=O)C(=O)NCc1ccccc1 (configuration not stated) | > 100 µM | > 100 µM | > 100 µM | > 100 µM | > 100 µM | > 100 µM | > 100 µM | > 100 µM | > 100 µM | – | > 100 µM | > 100 µM | > 100 µM | > 100 µM | – | – | –
5 | CCOC(=O)CCCOc1cc(-c2ccccc2F)nc2cc3c(cc12)OCO3 | > 100 µM | > 100 µM | – | > 100 µM | > 100 µM | > 100 µM | 14.5 µM | > 100 µM | > 100 µM | – | > 100 µM | > 100 µM | > 100 µM | > 100 µM | > 100 µM | 48.7 µM | 25 µM
6 | CC(=O)Nc1ccc(S(=O)(=O)N/N=C(\C)CN2C(=O)c3ccccc3C2=O)cc1 | > 100 µM | > 100 µM | > 100 µM | > 100 µM | > 100 µM | – | > 100 µM | > 100 µM | > 100 µM | > 100 µM | > 100 µM | > 100 µM | – | > 100 µM | – | – | –
7 | N#Cc1n[nH]n(-c2ccccc2)c1=O | > 100 µM | > 100 µM | > 100 µM | > 100 µM | – | – | > 100 µM | > 100 µM | > 100 µM | > 100 µM | > 100 µM | > 100 µM | > 100 µM | > 100 µM | > 100 µM | – | –
8 | CNc1cc(Cl)ccc1C(=O)N1CCC[C@H]1CO | > 100 µM | > 100 µM | > 100 µM | > 100 µM | > 100 µM | – | > 100 µM | > 100 µM | > 100 µM | > 100 µM | > 100 µM | > 100 µM | > 100 µM | > 100 µM | > 100 µM | – | –
